These molecules were tested on rats anesthetized with pentobarbital sodium (assay: Effects on blood pressure, heart rate, cardiac contraction and dilation in rats anesthetized with pentobarbital sodium). Conditions: change after injection through femoral vein, '+' = increase, all others = decrease, n = 3~5, doses mg/kg: 2, 8, 12: 10, 3-7, 9-11, 40-44: 5.
Assay type: in vivo, Wistar rats
Design: unit not given here
Experimental: Biological activity experiment 1. The effects of 16 compounds represented by formula I on blood pressure, heart rate, cardiac contraction and dilation in rats anesthetized with pentobarbital sodium.
The methods of biological activity experiment 1 were as follows: Male Wistar rats, weighing 280±30 g were purchased from the experimental animal center of Academy of Military Medical Sciences. Rats were anesthetized with pentobarbital sodium (45 mg/kg) by peritoneal injection. A PE50 polyethylene catheter was inserted into the left ventricle through right carotid artery for cardiac function measurement with a pressure energe exchanger, wherein the signal is put into a SMUP-PC biosignal processing system. Cardiac functional parameters such as HR, LVSP, +dp/dtmax, −dp/dtmax and Vpm were recorded. Another two PE50 polyethylene catheters were inserted into the right femoral artery and vein respectively for blood pressure measurement wherein the artery cathether was linked to a four-channel physiology recorder (RM-6000) through a MPU-0.5A Type pressure energe exchanger, which recorded SBP, DBP and MBP, while the vein catheter was used for compound administration. The methods were described by Liu Wei et al: Liu Wei, Wang Hai, Xiao Wen-Bin. […] Bull Acad Mil Med Sci 1996;20(4):245˜248.

Compound	MBP: mean blood pressure
CCC(C)N (centres unmarked) [compound 10]	4
CC(C)C(C)(C)NC(=O)[C@@H](N)Cc1c[nH]c2ccccc12 [compound 40, N-tryptophanyl-2,3-dimethyl-2-butylamine]	+0.7
CC(C)C[C@H](N)C(=O)NC(C)(C)C(C)C [compound 42, N-leucyl-2,3-dimethyl-2-butylamine]	+2
CC(C)NC(C)C(C)C (centres unmarked) [compound 7]	34
CCC(C)(C)NC [compound 11]	13
CNC(C)C [compound 8]	26
CCC(C)N (centres unmarked) [compound 12]	24
CC[C@H](C)[C@H](N)C(=O)NC(C)(C)C(C)C [compound 41, N-isoleucyl-2,3-dimethyl-2-butylamine]	+1
CC(C)C(C)(C)NC(=O)[C@@H](N)Cc1ccccc1 [compound 43, N-phenylalanyl-2,3-dimethyl-2-butylamine]	+2

Same assay, conditions: change after injection through femoral vein; '+' = increase, all others = decrease; mean, n = 3~5; doses mg/kg: 2, 8, 12: 10; 3-7, 9-11, 40-44: 5

Compound	DBP: diastolic blood pressure	HR: heart rate	LVSP: left ventricular systolic pressure	SBP: systolic blood pressure	Vpm: the physiological velocity of contractile element shorting	−dp/dtmax: the maximal rate of the decrease of left ventricular pressure
CCC(C)N (centres unmarked) [compound 10]	5	20	21	2	0.25	27
CC(C)C(C)(C)NC(=O)[C@@H](N)Cc1c[nH]c2ccccc12 [compound 40, N-tryptophanyl-2,3-dimethyl-2-butylamine]	0	6	+23	+2	+0.1	+6
CC(C)C[C@H](N)C(=O)NC(C)(C)C(C)C [compound 42, N-leucyl-2,3-dimethyl-2-butylamine]	+2	+1	+10	+2	+0.18	+13
CC(C)NC(C)C(C)C (centres unmarked) [compound 7]	34	46	184	34	1.08	226
CCC(C)(C)NC [compound 11]	10	19	+159	18	0.1	+86
CNC(C)C [compound 8]	24	53	121	28	1.45	124
CCC(C)N (centres unmarked) [compound 12]	23	39	112	25	0.58	129
CC[C@H](C)[C@H](N)C(=O)NC(C)(C)C(C)C [compound 41, N-isoleucyl-2,3-dimethyl-2-butylamine]	+1	16	+4	+2	0	+2
CC(C)C(C)(C)NC(=O)[C@@H](N)Cc1ccccc1 [compound 43, N-phenylalanyl-2,3-dimethyl-2-butylamine]	+1	+10	+31	+3	+0.13	+10

What follows are molecules tested on spontaneously hypertensive rats (assay: Acute antihypertensive effects in conscious spontaneously hypertensive rats). Conditions: 1 h; po mg/kg: compound 1 3, pinacidil 3, nifedipine 10, bisoprolol 60, captopril 40; means ± SD, 9-13 rats.
Assay type: in vivo
Text: Biological activity experiment 2. The acute antihypertensive effects of compound 1 in conscious spontaneously hypertensive rats.
The methods of biological activity experiment 2 were described by Long Chao-Liang et al: Long Chao-Liang, Wang Hai, Xiao Wen-Bin. Effects of pinacidil on, hypertensive vascular remodeling. Chin J Pharmacol Toxicol 1997; 11(1):42-46.

Compound	SBP at 1 h after administration
C[C@H](CS)C(=O)N1CCC[C@H]1C(=O)O [captopril]	207 ± 9 mmHg
COC(=O)C1=C(C)NC(C)=C(C(=O)OC)C1c1ccccc1[N+](=O)[O-] [nifedipine]	186 ± 6 mmHg
CC(C)NCC(O)COc1ccc(COCCOC(C)C)cc1 (centres unmarked) [bisoprolol]	211 ± 7 mmHg

Same assay, conditions: 1 h; po mg/kg: compound 1 3, pinacidil 3, nifedipine 10, bisoprolol 60, captopril 40; means ± SD, 9-13 rats; in bpm (unit assumed)

Compound	heart rates at 1 h
C[C@H](CS)C(=O)N1CCC[C@H]1C(=O)O [captopril]	380 ± 12
COC(=O)C1=C(C)NC(C)=C(C(=O)OC)C1c1ccccc1[N+](=O)[O-] [nifedipine]	410 ± 11
CC(C)NCC(O)COc1ccc(COCCOC(C)C)cc1 (centres unmarked) [bisoprolol]	283 ± 17

Same assay, conditions: 3 h; po mg/kg: compound 1 3, pinacidil 3, nifedipine 10, bisoprolol 60, captopril 40; means ± SD, 9-13 rats

Compound	SBP at 3 h after administration
C[C@H](CS)C(=O)N1CCC[C@H]1C(=O)O [captopril]	213 ± 11 mmHg
COC(=O)C1=C(C)NC(C)=C(C(=O)OC)C1c1ccccc1[N+](=O)[O-] [nifedipine]	219 ± 12 mmHg
CC(C)NCC(O)COc1ccc(COCCOC(C)C)cc1 (centres unmarked) [bisoprolol]	240 ± 7 mmHg

Same assay, conditions: 3 h; po mg/kg: compound 1 3, pinacidil 3, nifedipine 10, bisoprolol 60, captopril 40; means ± SD, 9-13 rats; in bpm (unit assumed)

Compound	heart rates at 3 h
C[C@H](CS)C(=O)N1CCC[C@H]1C(=O)O [captopril]	370 ± 24
COC(=O)C1=C(C)NC(C)=C(C(=O)OC)C1c1ccccc1[N+](=O)[O-] [nifedipine]	410 ± 31
CC(C)NCC(O)COc1ccc(COCCOC(C)C)cc1 (centres unmarked) [bisoprolol]	278 ± 16

Same assay, conditions: 5 h; po mg/kg: compound 1 3, pinacidil 3, nifedipine 10, bisoprolol 60, captopril 40; means ± SD, 9-13 rats

Compound	SBP at 5 h after administration
C[C@H](CS)C(=O)N1CCC[C@H]1C(=O)O [captopril]	233 ± 10 mmHg
COC(=O)C1=C(C)NC(C)=C(C(=O)OC)C1c1ccccc1[N+](=O)[O-] [nifedipine]	235 ± 5 mmHg
CC(C)NCC(O)COc1ccc(COCCOC(C)C)cc1 (centres unmarked) [bisoprolol]	242 ± 4 mmHg

Same assay, conditions: 5 h; po mg/kg: compound 1 3, pinacidil 3, nifedipine 10, bisoprolol 60, captopril 40; means ± SD, 9-13 rats; in bpm (unit assumed)

Compound	heart rates at 5 h
C[C@H](CS)C(=O)N1CCC[C@H]1C(=O)O [captopril]	366 ± 22
COC(=O)C1=C(C)NC(C)=C(C(=O)OC)C1c1ccccc1[N+](=O)[O-] [nifedipine]	367 ± 24
CC(C)NCC(O)COc1ccc(COCCOC(C)C)cc1 (centres unmarked) [bisoprolol]	335 ± 34

Same assay, conditions: 9 h; po mg/kg: compound 1 3, pinacidil 3, nifedipine 10, bisoprolol 60, captopril 40; means ± SD, 9-13 rats

Compound	SBP at 9 h after administration
C[C@H](CS)C(=O)N1CCC[C@H]1C(=O)O [captopril]	242 ± 4 mmHg
COC(=O)C1=C(C)NC(C)=C(C(=O)OC)C1c1ccccc1[N+](=O)[O-] [nifedipine]	240 ± 6 mmHg
CC(C)NCC(O)COc1ccc(COCCOC(C)C)cc1 (centres unmarked) [bisoprolol]	242 ± 3 mmHg

Same assay, conditions: 9 h; po mg/kg: compound 1 3, pinacidil 3, nifedipine 10, bisoprolol 60, captopril 40; means ± SD, 9-13 rats; in bpm (unit assumed)

Compound	heart rates at 9 h
C[C@H](CS)C(=O)N1CCC[C@H]1C(=O)O [captopril]	355 ± 12
COC(=O)C1=C(C)NC(C)=C(C(=O)OC)C1c1ccccc1[N+](=O)[O-] [nifedipine]	365 ± 13
CC(C)NCC(O)COc1ccc(COCCOC(C)C)cc1 (centres unmarked) [bisoprolol]	320 ± 36

Same assay, conditions: 12 h; po mg/kg: compound 1 3, pinacidil 3, nifedipine 10, bisoprolol 60, captopril 40; means ± SD, 9-13 rats

Compound	SBP at 12 h after administration
C[C@H](CS)C(=O)N1CCC[C@H]1C(=O)O [captopril]	241 ± 5 mmHg
COC(=O)C1=C(C)NC(C)=C(C(=O)OC)C1c1ccccc1[N+](=O)[O-] [nifedipine]	242 ± 4 mmHg
CC(C)NCC(O)COc1ccc(COCCOC(C)C)cc1 (centres unmarked) [bisoprolol]	243 ± 3 mmHg

Same assay, conditions: 12 h; po mg/kg: compound 1 3, pinacidil 3, nifedipine 10, bisoprolol 60, captopril 40; means ± SD, 9-13 rats; in bpm (unit assumed)

Compound	heart rates at 12 h
C[C@H](CS)C(=O)N1CCC[C@H]1C(=O)O [captopril]	355 ± 29
COC(=O)C1=C(C)NC(C)=C(C(=O)OC)C1c1ccccc1[N+](=O)[O-] [nifedipine]	365 ± 16
CC(C)NCC(O)COc1ccc(COCCOC(C)C)cc1 (centres unmarked) [bisoprolol]	341 ± 28

Same assay, conditions: 24 h; po mg/kg: compound 1 3, pinacidil 3, nifedipine 10, bisoprolol 60, captopril 40; means ± SD, 9-13 rats

Compound	SBP at 24 h after administration
C[C@H](CS)C(=O)N1CCC[C@H]1C(=O)O [captopril]	243 ± 4 mmHg
COC(=O)C1=C(C)NC(C)=C(C(=O)OC)C1c1ccccc1[N+](=O)[O-] [nifedipine]	242 ± 4 mmHg
CC(C)NCC(O)COc1ccc(COCCOC(C)C)cc1 (centres unmarked) [bisoprolol]	242 ± 6 mmHg

Same assay, conditions: 24 h; po mg/kg: compound 1 3, pinacidil 3, nifedipine 10, bisoprolol 60, captopril 40; means ± SD, 9-13 rats; in bpm (unit assumed)

Compound	heart rates at 24 h
C[C@H](CS)C(=O)N1CCC[C@H]1C(=O)O [captopril]	364 ± 12
COC(=O)C1=C(C)NC(C)=C(C(=O)OC)C1c1ccccc1[N+](=O)[O-] [nifedipine]	364 ± 22
CC(C)NCC(O)COc1ccc(COCCOC(C)C)cc1 (centres unmarked) [bisoprolol]	360 ± 7

Same assay, conditions: base value before administration; po mg/kg: compound 1 3, pinacidil 3, nifedipine 10, bisoprolol 60, captopril 40; means ± SD, 9-13 rats

Compound	SBP base value
C[C@H](CS)C(=O)N1CCC[C@H]1C(=O)O [captopril]	243 ± 4 mmHg
COC(=O)C1=C(C)NC(C)=C(C(=O)OC)C1c1ccccc1[N+](=O)[O-] [nifedipine]	242 ± 5 mmHg
CC(C)NCC(O)COc1ccc(COCCOC(C)C)cc1 (centres unmarked) [bisoprolol]	242 ± 5 mmHg

Same assay, conditions: base value before administration; po mg/kg: compound 1 3, pinacidil 3, nifedipine 10, bisoprolol 60, captopril 40; means ± SD, 9-13 rats; in bpm (unit assumed)

Compound	heart rates base value
C[C@H](CS)C(=O)N1CCC[C@H]1C(=O)O [captopril]	350 ± 17
COC(=O)C1=C(C)NC(C)=C(C(=O)OC)C1c1ccccc1[N+](=O)[O-] [nifedipine]	352 ± 19
CC(C)NCC(O)COc1ccc(COCCOC(C)C)cc1 (centres unmarked) [bisoprolol]	355 ± 17

These molecules were tested on rats anesthetized with pentobarbital sodium (assay: Antagonism of glibenclamide on the cardiovascular effects in anesthetized rats). Conditions: A: after administration (30 min after pinacidil, 10 min nifedipine, 15 min compound 1); iv mg/kg: pinacidil 1.0, nifedipine 1.0, compound 1 0.5; glibenclamide 20 iv pretreatment; means ± SE.
Assay type: in vivo, Wistar rats
Experimental: The methods of biological activity experiment 1 were as follows: Male Wistar rats, weighing 280±30 g were purchased from the experimental animal center of Academy of Military Medical Sciences. Rats were anesthetized with pentobarbital sodium (45 mg/kg) by peritoneal injection. A PE50 polyethylene catheter was inserted into the left ventricle through right carotid artery for cardiac function measurement with a pressure energe exchanger, wherein the signal is put into a SMUP-PC biosignal processing system. Cardiac functional parameters such as HR, LVSP, +dp/dtmax, −dp/dtmax and Vpm were recorded. Another two PE50 polyethylene catheters were inserted into the right femoral artery and vein respectively for blood pressure measurement wherein the artery cathether was linked to a four-channel physiology recorder (RM-6000) through a MPU-0.5A Type pressure energe exchanger, which recorded SBP, DBP and MBP, while the vein catheter was used for compound administration. The methods were described by Liu Wei et al: Liu Wei, Wang Hai, Xiao Wen-Bin.
The methods of Biological activity experiment 3 were the same as those described in the biological activity experiment 1.

Compound	DBP	LVSP	MBP	Vpm
COC(=O)C1=C(C)NC(C)=C(C(=O)OC)C1c1ccccc1[N+](=O)[O-] [nifedipine]	62 ± 7 mmHg	113 ± 7 mmHg	76 ± 8 mmHg	4.2 ± 0.5 /a

Same assay, conditions: B: before administration; iv mg/kg: pinacidil 1.0, nifedipine 1.0, compound 1 0.5; glibenclamide 20 iv pretreatment ten minutes; means ± SE

Compound	DBP	LVSP	MBP	Vpm
COC(=O)C1=C(C)NC(C)=C(C(=O)OC)C1c1ccccc1[N+](=O)[O-] [nifedipine]	95 ± 8 mmHg	131 ± 6 mmHg	111 ± 7 mmHg	5.7 ± 0.1 /a

Source: patent US7560473B2 (Institute of Pharmacology and Toxicology Academy of …, priority 2001, dated 2009)
